Experiments:
[1] = cn = amount concentration of the nth substance listed, in mol/dm3; settings: 101 kPa, Liquid, Alternating current cell with electrodes
[2] = mn = molality of the nth substance listed, in mol/kg; settings: 288.15 K, 101 kPa, Liquid, Pycnometric method

CCCCCCCCCCCCn1cc[n+](C)c1.[Br-] [1-dodecyl-3-methylimidazolium bromide] + O
electrical conductivity [S/m], [1]
Settings | 283.15 K | 288.15 K | 293.15 K | 298.15 K | 303.15 K | 308.15 K
c1 = 0.0006629 | 0.00432 | 0.00491 | 0.0055 | 0.00613 | 0.00676 | 0.00742
c1 = 0.001064 | 0.00695 | 0.00789 | 0.00894 | 0.00994 | 0.011 | 0.0121
c1 = 0.001497 | 0.0098 | 0.0111 | 0.0125 | 0.0139 | 0.0154 | 0.0169
c1 = 0.00184 | 0.012 | 0.0136 | 0.0153 | 0.017 | 0.0188 | 0.0201
c1 = 0.002146 | 0.014 | 0.0158 | 0.0178 | 0.0198 | 0.0216 | 0.0237
c1 = 0.00249 | 0.0158 | 0.0178 | 0.0201 | 0.0222 | 0.0247 | 0.0273
c1 = 0.002909 | 0.0168 | 0.019 | 0.0212 | 0.0239 | 0.027 | 0.0304
c1 = 0.003361 | 0.0175 | 0.0198 | 0.0222 | 0.0251 | 0.0284 | 0.0321
c1 = 0.003884 | 0.0183 | 0.0204 | 0.0233 | 0.0264 | 0.0299 | 0.0338
c1 = 0.00448 | 0.0192 | 0.0215 | 0.0244 | 0.0279 | 0.0315 | 0.0358
c1 = 0.004998 | 0.0199 | 0.0224 | 0.0256 | 0.0291 | 0.033 | 0.0374
c1 = 0.005625 | 0.0206 | 0.0236 | 0.0269 | 0.0305 | 0.0347 | 0.0394

NCC(=O)NCC(=O)O [glycylglycine] + O
[2]
Settings | mass density [kg/m3]
m1 = 0.06148 | 1002.65
m1 = 0.09135 | 1004.36
m1 = 0.1538 | 1007.96
m1 = 0.1823 | 1009.6
m1 = 0.2128 | 1011.36
m1 = 0.2534 | 1013.73
m1 = 0.3028 | 1016.61

— the NIST ThermoML archive (doi:10.1016/j.fluid.2014.01.038)
